Active and inactive are the calls of the source. No cut-off for these calls is given here.
Legend:
[1] = biological target: T1, Fatty acid-binding protein, liver (Homo sapiens) (UniProt P07148); assay: Inhibition of human FABP1 at 9 uM incubated for 3 mins by fluorescence based analysis relative to control
T1 sequence (whole entry): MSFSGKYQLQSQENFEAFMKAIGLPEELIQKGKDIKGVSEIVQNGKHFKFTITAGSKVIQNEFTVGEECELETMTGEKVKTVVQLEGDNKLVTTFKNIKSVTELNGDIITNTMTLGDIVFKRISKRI

[2] = biological target: T2, Fatty acid-binding protein, liver (Homo sapiens, UniProt P07148); assay: Inhibition of human FABP1 incubated for 3 mins by fluorescence based analysis
T2 sequence (P07148 whole entry): T1 sequence (whole entry)

Mus musculus [3] = assay: Hepatoprotective activity in high-fat diet induced obese male C57BL/6 mouse model assessed as decrease in TNF-alpha level in liver at 20 mg/kg/day, po measured after 4 weeks by ELISA method; type: functional, organism-based
[4] = biological target: Fatty acid-binding protein, adipocyte (Homo sapiens, UniProt P15090); assay: Inhibition of FABP4 (unknown origin) incubated for 3 mins by fluorescence based analysis
Sequence of Fatty acid-binding protein, adipocyte (P15090 whole entry): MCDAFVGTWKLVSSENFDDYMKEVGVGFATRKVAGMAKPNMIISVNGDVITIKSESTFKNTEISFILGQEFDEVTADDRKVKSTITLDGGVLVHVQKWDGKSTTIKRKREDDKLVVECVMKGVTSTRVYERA

[5] = Toxicity in high-fat diet induced obese male C57BL/6 mouse model assessed as effect on AST level in serum at 20 mg/kg/day, po measured after 4 weeks by automatic biochemical analyzer; type: organism-based; details: in vivo, 672 h
Mus musculus [6] = assay: Anti-NAFLD activity in high-fat diet induced obese male C57BL/6 mouse model assessed as reduction in AUC (0 to 90 mins) at 20 mg/kg, po administered everyday for 4 weeks by oral glucose tolerance test; type: functional, organism-based
[7] = Toxicity in high-fat diet induced obese male C57BL/6 mouse model assessed as effect on TBIL level in serum at 20 mg/kg/day, po measured after 4 weeks by automatic biochemical analyzer; type: organism-based; details: in vivo, 672 h
Mus musculus [8] = assay: Anti-NAFLD activity in high-fat diet induced obese male C57BL/6 mouse model assessed as improvement in oral glucose tolerance at 20 mg/kg, po administered everyday for 4 weeks by oral glucose tolerance test; type: functional, organism-based
[9] = Toxicity in high-fat diet induced obese male C57BL/6 mouse model assessed as effect on ALT level in serum at 20 mg/kg/day, po measured after 4 weeks by automatic biochemical analyzer; type: organism-based; details: in vivo, 672 h
Mus musculus [10] = assay: Hepatoprotective activity in high-fat diet induced obese male C57BL/6 mouse model assessed reduction in hepatocyte steatosis at 20 mg/kg, po administered everyday for 4 weeks by H and E staining based analysis; type: functional, organism-based
Mus musculus [11] = assay: Hepatoprotective activity in high-fat diet induced obese male C57BL/6 mouse model assessed reduction in inflammatory cell infiltration at 20 mg/kg, po administered everyday for 4 weeks by H and E staining based analysis; type: functional, organism-based
[12] = Toxicity in high-fat diet induced obese male C57BL/6 mouse model assessed as effect on UA level in serum at 20 mg/kg/day, po measured after 4 weeks by automatic biochemical analyzer; type: organism-based; details: in vivo, 672 h
Mus musculus [13] = assay: Hepatoprotective activity in high-fat diet induced obese male C57BL/6 mouse model assessed as reduction in LDL-C level in serum at 20 mg/kg/day, po measured after 4 weeks by automatic biochemical analyzer; type: functional, organism-based
Mus musculus [14] = assay: Hepatoprotective activity in high-fat diet induced obese male C57BL/6 mouse model assessed as reduction in TC level in serum at 20 mg/kg/day, po measured after 4 weeks by automatic biochemical analyzer; type: functional, organism-based
Mus musculus [15] = assay: Hepatoprotective activity in high-fat diet induced obese male C57BL/6 mouse model assessed as decrease in IL-6 level in liver at 20 mg/kg/day, po measured after 4 weeks by ELISA method; type: functional, organism-based
[16] = Toxicity in high-fat diet induced obese male C57BL/6 mouse model assessed as effect on ALP level in serum at 20 mg/kg/day, po measured after 4 weeks by automatic biochemical analyzer; type: organism-based; details: in vivo, 672 h
Mus musculus [17] = assay: Hepatoprotective activity in high-fat diet induced obese male C57BL/6 mouse model assessed as decrease in IL-1 beta level in liver at 20 mg/kg/day, po measured after 4 weeks by ELISA method; type: functional, organism-based
[18] = Toxicity in high-fat diet induced obese male C57BL/6 mouse model assessed as effect on TBA level in serum at 20 mg/kg/day, po measured after 4 weeks by automatic biochemical analyzer; type: organism-based; details: in vivo, 672 h
Mus musculus [19] = assay: Hepatoprotective activity in high-fat diet induced obese male C57BL/6 mouse model assessed as reduction in TG level in serum at 20 mg/kg/day, po measured after 4 weeks by automatic biochemical analyzer; type: functional, organism-based
Mus musculus [20] = assay: Hepatoprotective activity in high-fat diet induced obese male C57BL/6 mouse model assessed as decrease in MCP-1 level in liver at 20 mg/kg/day, po measured after 4 weeks by ELISA method; type: functional, organism-based

With `O=C(O)CCCCCCCOc1ccc(NS(=O)(=O)c2cccc3cccnc23)cc1` the inhibition [1] was 72.5% and the IC50 [2] was 2.44 µM.
`CC1CN(S(=O)(=O)c2cccc3cccnc23)CCN1C(=O)CC(=O)O` (stereo not given) gave an inhibition [1] of 20.3%.
`CSCCC(NS(=O)(=O)c1cccc2cccnc12)C(=O)O` (stereo not given) gave an inhibition [1] of 20.9%.
Work on `O=C(O)CCCCCCCOc1cccc(NS(=O)(=O)c2ccc(-c3ccccc3)cc2)c1` yielded an inhibition [1] of 73.5% and an IC50 [2] of 3.24 µM.
In the case of `O=C(O)CNS(=O)(=O)c1cccc2cccnc12`, the inhibition [1] is reported as 4.26%.
With `O=C(O)CCC(NC(=O)C1CCCN(S(=O)(=O)c2cccc3cccnc23)C1)C(=O)O` (stereo not given) the inhibition [1] was 10.3%.
Compound `O=C(C1CCCN(S(=O)(=O)c2cccc3cccnc23)C1)N1CCNCC1` (stereo not given) has an inhibition [1] of 11.5%.
`O=C(O)CC(=O)N1CCN(S(=O)(=O)c2ccc(-c3ccccc3)cc2)CC1` gave an inhibition [1] of 13.4%.
`O=C(O)C1CCCN(S(=O)(=O)c2cccc3cccnc23)C1` (stereo not given) showed an inhibition [1] of 13.7%.
Work on `N#Cc1ccc(-c2ccccc2S(=O)(=O)N2CCN(S(=O)(=O)c3cccc4cccnc34)CC2)cc1` yielded an inhibition [1] of 61.2% and an IC50 [2] of 2.66 µM.
Compound `O=C(O)c1cccc(NS(=O)(=O)c2cccc3cccnc23)c1` has an inhibition [1] of 8.28%.
Compound `O=C(O)CC(NC(=O)C1CCCN(S(=O)(=O)c2cccc3cccnc23)C1)C(=O)O` (stereo not given) has an inhibition [1] of 12.1%.
In the case of `O=C(O)CCNC(=O)c1ccc(NS(=O)(=O)c2cccc3cccnc23)cc1`, the inhibition [1] is reported as 15.3%.
For `O=S(=O)(c1ccccc1-c1cccc(O)c1)N1CCN(S(=O)(=O)c2cccc3cccnc23)CC1`, the inhibition [1] was 78.1%, the Activity (Mus musculus [3]) was “Active” and the IC50 [4] was > 80 µM. The IC50 [2] was 1.18 µM, the Activity [5] was “Non-Toxic” and the Activity (Mus musculus [6]) was “Active”. The Activity [7] was “Non-Toxic”, the Activity (Mus musculus [8]) was “Active” and the Activity [9] was “Non-Toxic”. The Activity (Mus musculus [10]) was “Active”, the Activity (Mus musculus [11]) was “Active” and the Activity [12] was “Non-Toxic”. The Activity (Mus musculus [13]) was “Active”, the Activity (Mus musculus [14]) was “Active” and the Activity (Mus musculus [15]) was “Active”. The Activity [16] was “Non-Toxic”, the Activity (Mus musculus [17]) was “Active” and the Activity [18] was “Non-Toxic”. The Activity (Mus musculus [19]) was “Active” and the Activity (Mus musculus [20]) was “Active”.
In the case of `O=C(O)CCNS(=O)(=O)c1cccc2cccnc12`, the inhibition [1] is reported as 3.47%.
Compound `O=C(O)C1(C(=O)N2CCN(S(=O)(=O)c3ccc(-c4ccccc4)cc3)CC2)CC1` has an inhibition [1] of 21.1%.
`O=C(O)C1(c2cccc(-c3ccc(OCc4c(-c5c(Cl)cccc5Cl)noc4C4CC4)cc3)c2)CC1` showed an IC50 [4] of 6.2 µM.
For `O=C(c1ccc(NS(=O)(=O)c2cccc3cccnc23)cc1)N1CCN(C(=O)C2(C(=O)O)CC2)CC1`, the inhibition [1] was 29.9%.
Work on `O=C(O)c1ccc(NS(=O)(=O)c2cccc3cccnc23)cc1` yielded an inhibition [1] of 1.28%.
In the case of `O=S(=O)(c1ccccc1-c1ccc(F)cc1)N1CCN(S(=O)(=O)c2cccc3cccnc23)CC1`, the inhibition [1] is reported as 52.7% and the IC50 [2] is reported as 5.66 µM.
Compound `O=C(O)CCC(NC(=O)N1CCN(S(=O)(=O)c2cccc3cccnc23)CC1)C(=O)O` (stereo not given) has an inhibition [1] of 31.6%.
In the case of `O=C(O)C[C@H](NC(=O)c1ccc(NS(=O)(=O)c2cccc3cccnc23)cc1)C(=O)O`, the inhibition [1] is reported as 13.1%.
For `O=C(O)CNC(=O)c1ccc(NS(=O)(=O)c2cccc3cccnc23)cc1`, the inhibition [1] was 16.1%.
`O=C(O)CC(=O)N1CCN(C(=O)c2ccc(NS(=O)(=O)c3cccc4cccnc34)cc2)CC1` showed an inhibition [1] of 23.8%.
Work on `Cc1cc(F)ccc1-c1ccccc1S(=O)(=O)N1CCN(S(=O)(=O)c2cccc3cccnc23)CC1` yielded an inhibition [1] of 63.8% and an IC50 [2] of 6.11 µM.
Work on `O=C(O)CNC(=O)CNS(=O)(=O)c1cccc2cccnc12` yielded an inhibition [1] of 10.1%.
With `O=C(O)CC(=O)N1CCN(S(=O)(=O)c2cccc3cccnc23)CC1` the inhibition [1] was 26.2%.
`O=C(O)CNC(=O)CNC(=O)c1ccc(NS(=O)(=O)c2cccc3cccnc23)cc1` showed an inhibition [1] of 11.9%.
`O=C(O)C1(C(=O)N2CCN(S(=O)(=O)c3cccc4cccnc34)CC2)CC1` gave an inhibition [1] of 30.5%.
Compound `O=C(O)CCCCCCCOc1cccc(NS(=O)(=O)c2cccc3cccnc23)c1` has an inhibition [1] of 69.3% and an IC50 [2] of 3.02 µM.
Compound `CCc1c(-c2ccccc2)c(-c2ccccc2)nn1-c1ccccc1-c1cccc(OCC(=O)O)c1` has an IC50 [2] of 2.71 µM.
`O=S(=O)(c1ccc(-c2ccccc2)cc1)N1CCNCC1` gave an inhibition [1] of 0.18%.
With `O=C(O)CC[C@H](NC(=O)c1ccc(NS(=O)(=O)c2cccc3cccnc23)cc1)C(=O)O` the inhibition [1] was 12.2%.
Work on `O=C(O)c1ccc(-c2ccccc2S(=O)(=O)N2CCN(S(=O)(=O)c3cccc4cccnc34)CC2)cc1` yielded an inhibition [1] of 68.3% and an IC50 [2] of 2.11 µM.

Reference: ChEMBL document CHEMBL5608210 (Eur J Med Chem, 2024)
